Data taken from patent US20210292438A1, “CONDITIONAL INTERNALIZATION OF PEGYLATED AGENTS BY PRETARGETING BI-SPECIFIC PEG-BINDING ANTIBODIES FOR DIAGNOSIS AND THERAPY” (ACADEMIA SINICA, priority 2017, published 2021).

Key:
[1] = SCID mice; cited from earlier work
[2] = tested on: human MDA-MB-468 TNBC or MDA-MB-231 TNBC xenografts; assay: Anti-tumor activity of pre-targeted PEG engager in xenografts; assay type: in vivo, SCID mice; conditions: i.v. once a week for 4 weeks; engager 5 h before drug; free doxorubicin 3 mg/kg, Doxisome 1 mg/kg
Method: Anti-tumor activity of PEG engager was tested in mice bearing human MDA-MB-468 TNBC or MDA-MB-231 TNBC xenografts following the procedure below.
Groups of severe combined immunodeficiency (SCID) mice bearing 44.7±10.7 mm^3 MDA-MB-231 (n=6) or 84.3±4.3 mm^3 subcutaneous MDA-MB-468 (n=8) tumors on their right flanks were intravenously injected with PBS or with 6 or 18 mg/kg PEG engagers. After 5 h, the mice were intravenously administrated with free doxorubicin (3 mg/kg) or Doxisome (1 mg/kg or 3 mg/kg). This treatment was repeated once a week for a total of 4 weeks. Tumour sizes were measured every 7 days.

COc1cccc2c1C(=O)c1c(O)c3c(c(O)c1C2=O)C[C@@](O)(C(=O)CO)C[C@@H]3O[C@H]1C[C@H](N)[C@H](O)[C@H](C)O1 [doxorubicin]
maximum-tolerated dose [1]: 2.5 to 3 mg/kg
tumor growth [2]: suppressed tumor growth
